The record followed here is patent publication US11142524B2, “Substituted-3H-imidazo[4,5-c]pyridine and 1H-pyrrolo[2,3-c]pyridine series of novel Ectonucleotide Pyrophosphatase/Phosphodiesterase-1 (ENPP1) and stimulator for interferon genes (STING) modulators as cancer immunotherapeutics” (Stingray Therapeutics, Inc., priority 2018, dated 2021).

Read-outs that look alike come from different tables or passages of the source. Where only a bound is given, the exact number is not on record here.

The target in assay [1] is T1, Recombinant Human ENPP-1 Protein (purified in-house) (Homo sapiens (Human), UniProt P22413). In words: ENPP1 Assay (TMP), Example 2. The assay is classed as biochemical. Here is the method:
Enzyme: 1 ng/μL Recombinant Human ENPP-1 Protein (purified in-house)—Assay Conc.: 5 ng/well of DMSO in 96-well clear assay plates.
(§1) A ten point serial dilution of drugs was prepared in 10× in assay buffer with the final assay concentrations starting at 10 μM, 3 μM, 1 μM, 0.3 μM . . . 0 μM. A dilution of DMSO was included as a control. The assay plate was set up as follows with each well in duplicate: 75 μL assay buffer+10 μL ENPP1 inhibitor or DMSO Dilutions+10 μL Substrate+5 μL Enzyme (5 ng). Both the enzyme and substrate were added to opposite sides of the well to ensure that there was no interaction until all wells had both components. The plate was then centrifuged gently for 10 seconds, followed by an incubation at 37° C. for 45 minutes. The reaction was quantified by measuring absorbance at 405 nm using the Envision Plate Reader.

Assay [2] addresses T2, ENPP1 protein (Homo sapiens (Human), UniProt P22413). In words: ENPP1 Thermal Shift Assay (Example 1). The assay is classed as binding. As to conditions: for Tm (° C.): NT 60.05; for ΔTm at 100 µM: read-out: ΔTm (° C.). Here is the method:
Assay Buffer (1 mM CaCl2, 0.2 mM ZnCl2, 50 mM Tris, pH 9.0) 5000×SYPRO Orange (ThermoFisher cat #S6651) 384-well PCR Plates
Each drug was prepared as a 10× solution in the assay buffer and SYPRO Orange was diluted to 10× concentration in water. Wells were set up in duplicate in a 384-well PCR plate as follows: 14 μL assay buffer, 2 μL ENPP1 Inhibitor or DMSO, 2 μL (0.5 μg) ENPP1 protein. Each well was mixed and incubated on ice for 5 minutes. Post incubation, 2 μL of SYPRO Orange was mixed into each well and followed by a gentle centrifugation. The protein melt reaction was run using ViiA7 software with temperatures beginning at 25° C. and increasing by 0.05° C./s to the maximum temperature of 99° C.
In a 384-well plate, 1.0 μg of ENPP1 protein incubated with 100 μM of the corresponding drug for 5 minutes. Each well exposed to increasing temperatures to determine an unfolding temperature of the protein.

For assay [3], the system named is Saos-2 Cells. In words: ENPP1 Mineralization Assay. The assay is classed as cell-based. Conditions: for inhibiting ENPP1 ability to produce mineralized nodules: FIG. 4, normalized against DMSO control. Here is the method: Saos-2 Cells (ATCC CAT #HTB-85). Culture Medium. 24-well Tissue Culture Plate. Ascorbic Acid, 5 mg/mL (100×). β-Glycerophosphate, 1M (100×). Phosphate Buffered Saline. Alizarin Red, 40 mM pH 4.2. 70% Ethanol. Dye Extraction Reagent, 10% Methanol+10% Acetic Acid
Saos-2 cells were plated at a density of 1.5×10^6 cells/well and allowed to grow to 100% confluency over the following 1-2 days. Once completely confluent, the media was replaced with fresh media supplemented with 1× ascorbic acid, 1× β-glycerophosphate, and varying concentrations of ENPP1 inhibitor (if applicable). The addition of the mineralization components was considered Day 1. On Day 3, the media was gently aspirated with no wash followed by the addition of fresh media, mineralization components, and ENPP1 inhibitor (if applicable). On day 5, the media was gently aspirated and the cells were washed twice with PBS. The cells were then fixed with ice cold 70% ethanol for 1 hour at 4° C. Cells were washed once with PBS and stained with Alizarin Red for 30 minutes at room temperature with gentle rotation. Stained cells were washed three times with water for 10 minutes at room temperature with gentle rotation. After imaging cells, dye extraction reagent was added to each well and incubated for 30 minutes at room temperature. Alizarin red was quantified by measuring absorbance at a wavelength of 405 nm using the Envision.
FIG. 9 depicts a picture of results of a similar SAOS-2 mineralization assay. SAOS-2 cell were cultured in the presence and absence of ENPP1 inhibitor (compound 78, 107-02 or 108) and exposed to mineralization components for 3 days.

The target of assay [4] is T1, Recombinant Human ENPP-1 Protein (purified in-house). In words: ENPP1 Assay (ATP), Example 2. Type of assay: biochemical. As for the experimental part:
Assay Buffer: 1 mM CaCl2, 0.2 mM ZnCl2, 50 mM Tris, pH 9.0. Substrate: 100 μM Adenosine 5′-triphosphate disodium salt hydrate (Promega: V703A)—Assay Conc.: 10 μM. Enzyme: 1 ng/μL Recombinant Human ENPP-1 Protein (purified in-house)—Assay Conc.: 5 ng/well of DMSO in 96-well white assay plates. Cell Titer Glo (Promega, cat #G7572).
as §1, with “by” for “by an”, “RT” for “37° C.”, “20 minutes. To detect levels of ATP, Cell Titer Glo was added 1:1 to each well and incubated for 10” for “45”, “luminescence” for “absorbance at 405 nm”

Assay [5] addresses T2, ENPP1 protein. In words: ENPP1 Inhibition Assay (thymidine 5′-monophosphate p-nitrophenol ester substrate). Type of assay: biochemical. As to conditions: for inhibiting the activity of ENPP1: FIG. 1. As for the experimental part: Assay Buffer: 1 mM CaCl2, 0.2 mM ZnCl2, 50 mM Tris, pH 9.0. Substrate: 8 mM Thymidine 5′-monophosphate p-nitrophenol ester sodium salt (Sigma Cat #T4510). Enzyme: 5 ng/L Recombinant Human ENPP-1 Protein (R&D Cat #6136-EN-010) in DMSO in 96-well clear assay plates
as §1, with “An eight” for “A ten”, “81” for “75”, “DMSO+5” for “DMSO Dilutions+10”, “Substrate+4” for “Substrate+5”, “Enzyme.” for “Enzyme (5 ng).”, “Envision.” for “Envision Plate Reader.”
(§2) IC50 values are determined using GraphPad Prism 5 software. The data were entered as an X-Y plot into the software as percent inhibition for each concentration of the drug. The concentration values of the drug were log transformed and the nonlinear regression was carried out using the “sigmoidal dose-response (variable slope)” option within the GraphPad software to model the data and calculate IC50 values. The IC50 values reported are the concentration of drug at which 50% inhibition was reached.

Assay [6] has as its system B16F10 tumor. In words: Anti-tumor efficacy in B16F10 (melanoma) syngeneic model. Type of assay: in vivo, C57BL/6 mice. The text has this: Animals: Female C57BL/6 (4-6 week's age from Taconic).
The B16F10 cells were propagated in DMEM cell culture medium containing 10% Fetal Bovine Serum. Cells were harvested in logarithmic growth phase and implanted subcutaneously ([…]) in the lower abdomen of mice. Tumor growth was monitored daily and after the tumors had reached 80 to 100 mm3, mice were randomized into groups consisting of 8 animals per group. Animals were euthanized when tumors reached around 2000 mm^3 or treatment regime completed or 20% of body weight loss, or developed ulceration and necrosis. Upon termination, tumor samples and blood were collected and analyzed for biomarkers.

Assay [7] concerns CT26 tumor. The assay can be described thus: CT26 tumor growth inhibition study. The assay is classed as in vivo. As to conditions: 30 mg P.O. QD, FIG. 14.
Assay [8] has as its system MDA-MB-468. In words: Chou-Talalay Synergy Study with Olaparib, MDA-MB-468. The assay is classed as cell-based. Conditions: MDA-MB-468, 72 hours. Here is the method:
Cell Lines: MDA-MB-468 and UWB289.1 (ATCC). Cell Titer Glo (Promega cat #: G7572). 96-well TC treated, white assay plates
Cells were cultured according to ATCC tissue culture recommendations. Cells were plated in a 96-well tissue culture plate at a density of 1500 cells/well and allowed to settle overnight. The following day, both drugs were prepared at 10× concentration in the following ratios (Compound 22:Olaparib): 1:1, 10:1, and 1:10. The drugs were serially diluted to create an 8-point dose curve and 10 μL of each drug was added to the cells for a total volume of 100 μL/well. Plates were placed in a tissue culture incubator for 72 hours. Following incubation, each plate was treated with Cell Titer Glo according to vendor recommendation and luminescence was measured with the Envision Plate Reader. Data was analyzed using CalcuSyn software according to the methods described in Chou, Drug combination studies and their synergy quantification using the Chou-Talalay method, Cancer Res. 2010 Jan. 15; 70(2):440-6.
A Combination index (CI) value greater than 1 indicates […], equal to 1 indicates additive and less than 1 indicates synergy.

Assay [9] has as its target Recombinant Human ENPP-2/Autotaxin Protein (Homo sapiens (Human), UniProt Q13822). In words: ENPP2 Inhibition Assay. Type of assay: biochemical. Here is the method:
Assay Buffer: 10 mM CaCl2, 5 mM MgCl2, 50 mM Tris, 0.02% Brij-35, pH 8.5. Substrate: 2 mM Bis(p-Nitrophenyl) Phosphate Sodium Salt (Sigma Cat # N3002). Enzyme: 0.2 ng/μL Recombinant Human ENPP-2/Autotaxin Protein (R&D Cat #5255-EN), PF-3080 in DMSO in 96-well clear assay plates
as §1, with “An eight” for “A ten”, “15” for “75”, “DMSO+50” for “DMSO Dilutions+10”, “Substrate+25” for “Substrate+5”, “Enzyme.” for “Enzyme (5 ng).”, “Envision.” for “Envision Plate Reader.”
as §2

Setting [10] is: Table 2, FIG. 7, 100 μM drug, 1.0 μg ENPP1.
Where [11] appears, read: Table 1, FIG. 1, read-out: IC50.

T1 sequence (P22413 whole entry, looked up): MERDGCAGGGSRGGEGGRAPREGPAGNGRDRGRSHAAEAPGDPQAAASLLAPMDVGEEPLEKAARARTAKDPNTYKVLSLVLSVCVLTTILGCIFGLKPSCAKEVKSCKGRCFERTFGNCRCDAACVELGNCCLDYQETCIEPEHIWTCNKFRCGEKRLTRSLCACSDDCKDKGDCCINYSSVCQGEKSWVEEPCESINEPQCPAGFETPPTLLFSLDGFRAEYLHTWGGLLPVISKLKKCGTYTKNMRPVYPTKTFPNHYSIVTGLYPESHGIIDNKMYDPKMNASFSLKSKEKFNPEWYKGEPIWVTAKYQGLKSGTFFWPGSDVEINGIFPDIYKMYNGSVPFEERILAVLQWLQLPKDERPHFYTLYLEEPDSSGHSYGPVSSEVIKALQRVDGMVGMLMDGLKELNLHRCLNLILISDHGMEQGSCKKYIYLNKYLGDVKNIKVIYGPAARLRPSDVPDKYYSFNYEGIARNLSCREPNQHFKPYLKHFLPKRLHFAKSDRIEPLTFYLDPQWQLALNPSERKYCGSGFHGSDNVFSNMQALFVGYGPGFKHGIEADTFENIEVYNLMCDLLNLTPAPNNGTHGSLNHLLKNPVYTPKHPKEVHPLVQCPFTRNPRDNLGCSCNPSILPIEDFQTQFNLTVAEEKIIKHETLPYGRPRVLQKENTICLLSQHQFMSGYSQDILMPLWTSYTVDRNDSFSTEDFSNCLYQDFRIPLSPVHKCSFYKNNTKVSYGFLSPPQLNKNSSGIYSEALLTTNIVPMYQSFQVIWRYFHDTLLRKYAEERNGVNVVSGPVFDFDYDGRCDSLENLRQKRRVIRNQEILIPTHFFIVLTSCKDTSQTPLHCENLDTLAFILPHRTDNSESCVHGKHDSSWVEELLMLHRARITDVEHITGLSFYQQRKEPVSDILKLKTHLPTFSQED
T2 sequence (P22413 whole entry, looked up, stated change not applied): as the sequence (P22413 whole entry, looked up) above

As usually defined, the IC50 is the concentration that gives 50% inhibition. Broadly, the ΔTm is the shift of the melting midpoint relative to a reference. Regarding `COc1cc(NC(=O)CSc2nc3c(C)c(C#N)ncc3[nH]2)ccc1OP(=O)([O-])[O-].[Na+].[Na+]` [Compound 108, sodium 4-(2-((6-Cyano-7-methyl-3H-imidazo[4,5-c]pyridin-2-yl)thio)acetamido)-2-methoxyphenyl phosphate], the IC50 in assay [1] (FIG. 5A, TMP substrate, read-out: IC50) was determined as 2.04 µM; in assay [1] (Table 5, TMP substrate, read-out: ENPP1 (IC50 μM) TMP), 2.04 µM; in assay [4] (FIG. 5B, ATP substrate, read-out: IC50) it was 0.339 µM; in assay [4] (Table 5, ATP substrate, read-out: ENPP1 (IC50 μM) ATP), 0.339 µM. For the same molecule, the “Tm (° C.)” value in assay [2] (setting [10]) is 63.60 °C. Moreover, the ΔTm at 100 µM in [2] is 3.54 °C. In addition, the total mineralization entry in assay [3] (FIG. 9, mineralization components for 3 days) is “significant decrease”.
Turning to `COc1ccc(NC(=O)CSc2nc3cc(C#N)ncc3[nH]2)cc1OC` [Compound 68, 2-((6-Cyano-3H-imidazo[4,5-c]pyridin-2-yl)thio)-N-(3,4-dimethoxyphenyl)acetamide], in assay [5], the “inhibiting the activity of ENPP1” value was “effective”. Besides, the IC50 in assay [5] (setting [11]) was 114 nM. Further, in [3], the “inhibiting ENPP1 ability to produce mineralized nodules” value was “effective”.
Regarding `COc1cc(NC(=O)CSc2nc3cc(Cl)ncc3[nH]2)ccc1O` [Compound 22, 2-((6-chloro-3H-imidazo[4,5-c]pyridin-2-yl)thio)-N-(4-hydroxy-3-methoxyphenyl) acetamide], in assay [2] (setting [10]), the “Tm (° C.)” value is 61.37 °C and the thermal shift (ΔTm) at 100 µM is 1.32 °C. Besides, in assay [6] (30 mg/kg dose (FIG. 6A / FIG. 13A)), the “B16F10 tumor growth inhibition” value was determined as 28%. For the same molecule, the “B16F10 tumor growth inhibition” value in assay [6] (FIG. 6B / FIG. 13B, dose and route not stated) is 27%. For the same molecule, the “CT26 tumor growth inhibition” value in assay [7] is on record as 39%.
As for `O=C(c1cc(Cc2n[nH]c(=O)c3ccccc23)ccc1F)N1CCN(C(=O)C2CC2)CC1` [Olaparib], the “ED50 Drug Concentration Olaparib” value in assay [8] came out at 185065 nM.
For `COc1ccc(NC(=O)CSc2nc3cc(Cl)ncc3[nH]2)cc1O` [Compound 21, 2-((6-chloro-3H-imidazo[4,5-c]pyridin-2-yl)thio)-N-(3-hydroxy-4-methoxyphenyl) acetamide], the “inhibiting the activity of ENPP1” value in assay [5] was “effective”. In addition, in assay [5] (setting [11]), the IC50 stood at 86.8 nM. Further, the “increasing the stability of recombinant ENPP1 protein” value in assay [2] (FIG. 3) is recorded as “effective”. Also, the “Tm (midpoint of the protein unfolding transition) of ENPP1” value in assay [2] (FIG. 3, ENPP1 alone 64.2° C.) amounted to 67.84 °C. In addition, the “inhibiting ENPP1 ability to produce mineralized nodules” value in [3] was “effective”. Further, the “selective at inhibiting ENPP1 but not ENPP2” value in [9] is recorded as “selective”. The “inhibiting the activity of ENPP2” value in assay [9] (FIGS. 2A and 2B) was “ineffective”.
With `O=C(CSc1nc2cc(Cl)ncc2[nH]1)Nc1ccc2c(c1)OCO2` [Compound 7, N-(benzo[d][1,3]dioxol-5-yl)-2-((6-chloro-1H-imidazo[4,5-c]pyridin-2-yl)thio)acetamide], in assay [5] (Tables 3 and 4, read-out: ENPP1 inhibition (IC50)), the IC50 is > 50000 nM.
